Columns and labels:
Assay in all cases: relative viability (nuclei count vs DMSO), 5 days (fraction); higher = more cells survive
CAP-232 + Vorinostat = compound: C[C@H]([C@@H](C(=O)N)NC(=O)[C@@H]1CSSC[C@@H](C(=O)N[C@H](C(=O)N[C@@H](C(=O)N[C@H](C(=O)N1)CCCCN)CC2=CNC3=CC=CC=C32)CC4=CC=C(C=C4)O)NC(=O)[C@@H](CC5=CC=CC=C5)N)O [CAP-232] + O=C(CCCCCCC(=O)Nc1ccccc1)NO [Vorinostat] (partner 1 µM)
Summary of the method: (§1)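 A single step with final 0.05% Triton X-100, 1% formaldehyde and 1 ug/ml Hoechst fixed the cells and stained nuclei 5 days after treatment. Lung cancer cell lines in 1536-well plates had been treated by pin tool the day after seeding with one drug alone or a fixed anchor-drug dose plus five library-drug doses (not always all listed) in √10 steps, and nuclei were counted on 4× images. Relative viability is the ratio of nuclei in treated wells to nuclei in vehicle wells, taken as the median of duplicate plates.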

CAP-232 + AZD7762 = compound: C[C@H]([C@@H](C(=O)N)NC(=O)[C@@H]1CSSC[C@@H](C(=O)N[C@H](C(=O)N[C@@H](C(=O)N[C@H](C(=O)N1)CCCCN)CC2=CNC3=CC=CC=C32)CC4=CC=C(C=C4)O)NC(=O)[C@@H](CC5=CC=CC=C5)N)O [CAP-232] + NC(=O)Nc1cc(-c2cccc(F)c2)sc1C(=O)N[C@H]1CCCNC1 [AZD7762] (partner 0.2 µM)
Summary of the method: as §1

CAP-232 + Lapatinib = compound: C[C@H]([C@@H](C(=O)N)NC(=O)[C@@H]1CSSC[C@@H](C(=O)N[C@H](C(=O)N[C@@H](C(=O)N[C@H](C(=O)N1)CCCCN)CC2=CNC3=CC=CC=C32)CC4=CC=C(C=C4)O)NC(=O)[C@@H](CC5=CC=CC=C5)N)O [CAP-232] + CS(=O)(=O)CCNCc1ccc(-c2ccc3ncnc(Nc4ccc(OCc5cccc(F)c5)c(Cl)c4)c3c2)o1 [Lapatinib] (partner 2 µM)
Summary of the method: as §1

CAP-232 + Trametinib = compound: C[C@H]([C@@H](C(=O)N)NC(=O)[C@@H]1CSSC[C@@H](C(=O)N[C@H](C(=O)N[C@@H](C(=O)N[C@H](C(=O)N1)CCCCN)CC2=CNC3=CC=CC=C32)CC4=CC=C(C=C4)O)NC(=O)[C@@H](CC5=CC=CC=C5)N)O [CAP-232] + CC(=O)Nc1cccc(-n2c(=O)n(C3CC3)c(=O)c3c(Nc4ccc(I)cc4F)n(C)c(=O)c(C)c32)c1 [Trametinib] (partner 0.02 µM)
Summary of the method: as §1

CAP-232 = compound: C[C@H]([C@@H](C(=O)N)NC(=O)[C@@H]1CSSC[C@@H](C(=O)N[C@H](C(=O)N[C@@H](C(=O)N[C@H](C(=O)N1)CCCCN)CC2=CNC3=CC=CC=C32)CC4=CC=C(C=C4)O)NC(=O)[C@@H](CC5=CC=CC=C5)N)O [CAP-232]
Summary of the method: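 MetaXpress counted nuclei in 4× images of lung cancer cell lines that had been fixed, permeabilised and Hoechst-stained in one step. Before that, cells in 1536-well plates were kept overnight at 37 °C, pinned with five √10-spaced library-drug doses on vehicle-anchored plates, and cultured 5 days without medium change. Viability takes treated-well nuclei over vehicle-well nuclei and uses the median across plates. Plates were accepted only at control CV below 25% and at least one doubling.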

Cell Line	relative viability (CAP-232 + Vorinostat; first compound 0.4 µM)	relative viability (CAP-232 + Vorinostat; first compound 1.265 µM)	relative viability (CAP-232 + Vorinostat; first compound 4 µM)	relative viability (CAP-232 + Vorinostat; first compound 12.65 µM)	relative viability (CAP-232 + AZD7762; first compound 0.4 µM)	relative viability (CAP-232 + AZD7762; first compound 1.265 µM)	relative viability (CAP-232 + AZD7762; first compound 4 µM)	relative viability (CAP-232 + AZD7762; first compound 12.65 µM)	relative viability (CAP-232 + Lapatinib; first compound 1.265 µM)	relative viability (CAP-232 + Lapatinib; first compound 4 µM)	relative viability (CAP-232 + Lapatinib; first compound 12.65 µM)	relative viability (CAP-232 + Trametinib; first compound 0.4 µM)	relative viability (CAP-232 + Trametinib; first compound 1.265 µM)	relative viability (CAP-232 + Trametinib; first compound 4 µM)	relative viability (CAP-232 + Trametinib; first compound 12.65 µM)	relative viability (CAP-232; 0.4 µM)	relative viability (CAP-232; 1.265 µM)	relative viability (CAP-232; 4 µM)	relative viability (CAP-232; 12.65 µM)	relative viability (CAP-232 + Lapatinib; first compound 0.4 µM)
NCI-H727	1.19	1.08	1.39	1.23	0.572	0.586	0.612	0.617	0.792	0.826	0.719	0.383	0.397	0.442	0.415	0.746	0.938	0.955	0.913	–
NCI-H1734	0.878	0.755	0.803	0.708	0.637	0.578	0.527	0.426	1	0.95	0.73	0.506	0.656	0.645	0.504	0.97	0.981	1.05	0.936	1
EKVX	1.01	0.74	0.818	0.749	0.899	0.712	0.699	0.471	0.203	0.191	0.171	0.583	0.342	0.268	0.331	1.07	0.968	1.04	0.885	0.211
HARA	0.497	0.487	0.598	0.432	0.397	0.576	0.267	0.315	0.613	0.691	0.732	0.323	0.9	0.643	0.506	1.12	0.984	1.03	0.902	0.717
EMC-BAC-2	0.818	0.395	0.483	0.383	1.28	1.05	1.12	0.828	0.914	0.928	0.917	0.757	0.864	0.859	0.415	1.19	0.941	0.995	0.866	0.951
PC-3 [JPC-3]	1.3	0.741	0.864	0.741	1.02	0.735	0.873	0.794	0.444	0.454	0.461	0.703	0.7	0.69	0.7	1.09	1.05	1.07	0.955	0.503
NCI-H1755	0.698	0.635	0.755	0.73	0.453	0.396	0.536	0.403	0.984	1.23	1.02	0.765	0.724	0.792	0.771	1.04	0.964	1.1	0.918	1.13
NCI-H2087	0.985	0.728	0.886	0.439	1.32	1.4	1.59	0.684	1.02	1.03	0.519	0.188	0.228	0.201	0.205	1.02	0.936	1.08	0.788	1.08
CAL-12T	0.805	0.752	0.832	0.431	0.753	0.596	0.664	0.706	0.612	0.644	0.736	0.233	0.303	0.394	0.162	0.917	0.992	0.995	0.97	0.528
NCI-H2085	0.852	0.819	0.779	0.832	1.04	1.03	0.988	0.964	0.789	0.732	0.878	0.514	0.586	0.532	0.569	1.03	1.03	0.997	0.945	0.833
NCI-H650	0.505	0.423	0.364	0.457	1.29	1.03	1.02	0.951	0.879	0.966	0.958	0.821	1.04	0.896	1.01	1.03	0.979	1.02	0.91	1.17
LCLC-97TM1	0.876	0.764	1.08	0.995	0.442	0.238	0.341	0.429	1.15	1.05	0.946	0.143	0.184	0.154	0.188	1.02	0.943	0.986	0.965	1.13
NCI-H2126	0.827	0.795	0.755	0.857	1.11	1.01	1.18	1.01	0.694	0.895	0.797	0.622	0.523	0.561	0.602	1.05	0.985	1.1	0.991	0.762
201T	1.05	0.98	1	0.995	0.636	0.716	0.643	0.643	0.98	1.04	1.04	0.707	0.698	0.729	0.677	1.07	0.952	0.996	1.02	1.11
